In paper PMC7999199, “Novel Cationic Meso-Arylporphyrins and Their Antiviral Activity against HSV-1” (Pharmaceuticals, 2021):
Where two headings read alike, the source gives them in different places.

Tests used:
[1] = Vero cell viability, MTT test, 72 h; type: cell-based, African green monkey; conditions: African green monkey, Vero cells, MTT; for viability at 72 h, 0.39 µM: 0.39 µM/L; for viability at 72 h, 0.39 µM / viability at 72 h, 0.78 µM / viability at 72 h, 1.56 µM / viability at 72 h, 3.13 µM / viability at 72 h, 6.25 µM / viability at 72 h, 12.5 µM / viability at 72 h, 25 µM / viability at 72 h, 50 µM / viability at 72 h, 100 µM: Vero, 3 days, read-out: Viability % ±s.d.; for viability at 72 h, 0.78 µM: 0.78 µM/L; for viability at 72 h, 1.56 µM: 1.56 µM/L; for viability at 72 h, 3.13 µM: 3.13 µM/L; for viability at 72 h, 6.25 µM: 6.25 µM/L; for viability at 72 h, 12.5 µM: 12.50 µM/L; for viability at 72 h, 25 µM: 25 µM/L; for viability at 72 h, 50 µM: 50 µM/L; for viability at 72 h, 100 µM: 100 µM/L; for CC50 at 72 h: dissolved in PBS
Description: (§1) Before testing antiviral activity, the effect of porphyrins dissolved in PBS and Pluronic F-127 on the viability of Vero cells was evaluated. Cells were incubated for 72 h using different concentrations of porphyrins (0.39–100 μM). Viability was assessed using the MTT test (Figure S13, Table S1, Supplementary Information). The viability of Vero cells depends on the porphyrins’ structure and formulation.
(§2) Cell viability was assessed by MTT reduction assay. Briefly, confluent monolayer Vero cells in 96-well plates (15000 cells/well) were incubated for 72 h with different concentrations of the compounds ranging from 0.39 µM to 100 µM in DMEM-1% FCS at 36.8 °C in 5% CO2 atmosphere. Next, cells were incubated for 1 h with 1.0 mg/mL of 3-(4,5-dimethylthiazol-2-y1)-2,5-diphenyltetrazolium bromide (MTT, PanEco, Moscow, Russia) at 36.8 °C, and then the solution was removed, and precipitated formazan was diluted in DMSO (PanEco, Moscow, Russia). The solution was read on a spectrophotometer at 540 nm. For each concentration, the average cell viability was calculated from the data of three experiments with three replicates each and was expressed as a percentage compared to the untreated cells (100%).
(§3) Table s1. Vero cell viability after exposure to 3a, 3b, TMEPyP compounds dissolved in PBS and Pluronic F-127. Different concen-
(§4) trations of compounds were applied to the cell monolayer and after incubation for 3 days, the number of living cells was calculated
(§5) in the MTT test. Each point represents the mean ± standard deviation of three experiments with […] each. n.d. –not done.
(§6) Compound Concentration, µM/L Viability % ±s.d.

Vero cells = assay: Vero cell viability, MTT test, 72 h; type: cell-based, African green monkey; conditions: Vero cells; for CC50: Pluronic F-127 (F127) micellar formulation, MTT, 72 h
Description: as §1, §2, §3, §4, §5, §6

[2] = n-Octanol/PBS partition coefficient; type: physicochemical; conditions: 1-n-octanol/PBS, pH 7; read-out: LogP (LogPow, 1-n-octanol/water partition coefficient)
Description: The normalized UV-vis spectra, as well as the fluorescence spectra in DMSO and ethanol, are shown in Figures S1 and S2 (Supplementary Information). Fluorescence quantum yields were measured as compared with 5,10,15,20-tetrakisphenylporphyrin (TPP) (ΦF = 0.11) and ZnTPP (ΦF = 0.033). For free-base compounds 3a,b fluorescence quantum yields were similar at ca. 0.13 in DMSO and ca. 0.14, respectively. Octanol-water distribution coefficients were calculated using 1-n-octanol and phosphate-buffered saline (PBS), according to the method described in [53]. […] As expected, compound 3a was more hydrophilic (LogPow = −4.86) than 3b (LogPow = −4.6). Such an effect can be associated with the increase in the number of methylene spacers in compound 3b.
The distribution coefficient was measured using 1-n-octanol and phosphate buffered saline (PBS), which were presaturated with each other by the described method. […] The absorption of each layer was measured spectrophotometrically in the region of the Soret band. Partition coefficients were calculated as the ratio between absorption in the Soret band of photosensitizers in organic and aqueous phase and the dilution factors for the organic and aqueous layers, according to the aforementioned method.

[3] = Micelle size of Pluronic F-127 formulations by dynamic light scattering; type: physicochemical; conditions: Pluronic F-127 micelles, concentration 3·10^−6 M
Description: The size of obtained micelles for the compounds 3a,b was determined by the dynamic light scattering (DLS) method. The micelle size for compounds 3a,b was 17.53 nm and 14.69 nm, respectively, at concentrations of 3·10^−6 M (Figure 4a,b). It has previously been reported that a similar micelle size increased the efficiency and circulation of the encapsulated drug in the blood due to the small scale, which avoided the capture of nanoparticles by the reticular endothelial system.
NMR (^1H and ^13C) spectra of the test solutions in CDCl3 or (CD3OD) were recorded on a Bruker MSL-300 pulse Fourier transform spectrometer (Bruker, Billerica, MA, USA) at frequencies of 300.3 and 75.49 MHz, respectively, with internal deuterium stabilization. Tetramethylsilane was used as an external standard. IR spectra (4000–500 cm^–1) were recorded on Infralyum FT 02 Fourier spectrometer (Lumex Instruments Research and Production Company, Moscow, Russia) with a resolution of 1 cm^−1. Samples were prepared as KBr tablets. Dynamic light scattering was measured using Malvern Zetasizer Nano ZS (Malvern, United Kingdom). […] Mass spectra were recorded using an 1100 LCMSD liquid chromatograph (Agilent Technologies, Santa Clara, CA, USA) equipped with a mass spectrometric chemical ionization detector at atmospheric pressure (HIAD, APCI, ESI) and with a UV spectrophotometric detector (DAD). […]

| Compound | viability at 72 h, 0.39 µM ([1]; +F127 (Pluronic F-127)) [%] | viability at 72 h, 0.78 µM ([1]; +F127 (Pluronic F-127)) [%] | viability at 72 h, 1.56 µM ([1]; +F127 (Pluronic F-127)) [%] | viability at 72 h, 3.13 µM ([1]; +F127 (Pluronic F-127)) [%] | viability at 72 h, 6.25 µM ([1]; +F127 (Pluronic F-127)) [%] | viability at 72 h, 12.5 µM ([1]; +F127 (Pluronic F-127)) [%] | viability at 72 h, 25 µM ([1]; +F127 (Pluronic F-127)) [%] | viability at 72 h, 50 µM ([1]; +F127 (Pluronic F-127)) [%] | viability at 72 h, 100 µM ([1]; +F127 (Pluronic F-127)) [%] | viability at 72 h, 3.13 µM ([1]; -F127 (PBS)) [%] | viability at 72 h, 6.25 µM ([1]; -F127 (PBS)) [%] | viability at 72 h, 12.5 µM ([1]; -F127 (PBS)) [%] | viability at 72 h, 25 µM ([1]; -F127 (PBS)) [%] | viability at 72 h, 50 µM ([1]; -F127 (PBS)) [%] | viability at 72 h, 100 µM ([1]; -F127 (PBS)) [%] | CC50 at 72 h [1] [µM] | CC50 (Vero cells) [µM] | also measured |
| --- | --- | --- | --- | --- | --- | --- | --- | --- | --- | --- | --- | --- | --- | --- | --- | --- | --- | --- |
| C[n+]1ccc(-c2c3nc(c(-c4cc[n+](C)cc4)c4ccc([nH]4)c(-c4cc[n+](C)cc4)c4nc(c(-c5cc[n+](C)cc5)c5ccc2[nH]5)C=C4)C=C3)cc1 [TMePyP, 5,10,15,20-tetrakis(1-methyl-4-pyridinio)porphyrin tetraiodide, reference compound] | 82.9 ± 5.4 | 79.9 ± 2.3 | 90.2 ± 9.7 | 95.2 ± 6 | 90.4 ± 2.7 | 83 ± 8.6 | 95.2 ± 3.2 | 114 ± 6.2 | 104 ± 1.2 | 101 ± 5 | 98.5 ± 5 | 97.4 ± 4.6 | 95.3 ± 5.3 | 93.7 ± 5.5 | 89.6 ± 6.8 | > 100 | > 100 |  |
| O=C(CC[n+]1ccccc1)Oc1ccc(-c2c3nc(c(-c4ccc(OC(=O)CC[n+]5ccccc5)cc4)c4ccc([nH]4)c(-c4ccc(OC(=O)CC[n+]5ccccc5)cc4)c4nc(c(-c5ccc(OC(=O)CC[n+]6ccccc6)cc5)c5ccc2[nH]5)C=C4)C=C3)cc1 [3a] | 93 ± 4.6 | 99.2 ± 4.2 | 95.6 ± 4.2 | 90.8 ± 2.3 | 90.3 ± 7.8 | 91.7 ± 2.8 | 89.1 ± 4.1 | 92.9 ± 2 | 80.4 ± 1.8 | 106 ± 4.5 | 105 ± 8.7 | 94.7 ± 5.1 | 90.9 ± 10 | 91.9 ± 2.2 | 76.8 ± 6.9 | > 100 | > 100 | logP [2]: -4.86; micelle size (DLS) [3]: 17.53 nm; viability at 72 h, 0.39 µM ([1]; -F127 (PBS)): 94.6 ± 2.9%; viability at 72 h, 0.78 µM ([1]; -F127 (PBS)): 102 ± 4.2%; viability at 72 h, 1.56 µM ([1]; -F127 (PBS)): 108 ± 15.4%; toxic concentration (Vero cells; used to choose concentrations for the virucidal test): > 100 µM |
